Test results taken from article PMC11876671, “Investigating blood–brain barrier penetration and neurotoxicity of natural products for central nervous system drug development” (Scientific Reports, 2025).
Where a name gives a salt, the structure may show the parent alone.

Assay: in vitro
Conditions: PAMPA, PAMPA-BBB Pe

| Compound | Papp |
| --- | --- |
| CCOC(=O)c1ccc(N)cc1 [BENZOCAINE] | 99 ×10⁻⁶ cm/s |
| COc1cc2c(cc1OC)[C@@]13CCN4CC5=CCO[C@H]6CC(=O)N2[C@H]1[C@H]6[C@H]5C[C@H]43 [BRUCINUM] | 16 ×10⁻⁶ cm/s |
| CC(C)(O)CC[C@@H](O)[C@](C)(O)[C@H]1CC[C@@]2(O)C3=CC(=O)[C@@H]4C[C@@H](O)[C@@H](O)C[C@]4(C)[C@H]3CC[C@]12C [COMMISTERONE] | 14 ×10⁻⁶ cm/s |

Same assay, conditions: PAMPA, PAMPA-BBB Pe(10^-6 cm/sec)

| Compound | Papp |
| --- | --- |
| COc1cc(/C=C/C(N)=O)cc(OC)c1OC [CINTRIAMIDE] | 2.3 ×10⁻⁶ cm/s |
| COc1cc2c(c(OC)c1OC)-c1ccc(OC)c(=O)cc1[C@@H](NC(C)=O)CC2 [COLCHCINE] | < 1 ×10⁻⁶ cm/s |
| O=c1cccc2n1C[C@@H]1CNC[C@H]2C1 [CYTISINE] | < 1 ×10⁻⁶ cm/s |
| CN(C)[C@@H]1C(O)=C(C(N)=O)C(=O)[C@@]2(O)C(O)=C3C(=O)c4c(O)ccc(Cl)c4[C@@H](O)[C@H]3C[C@@H]12 [DEMECLOCYCLINE HYDROCHLORIDE] | 1.5 ×10⁻⁶ cm/s |
| O=C(O)c1cccc(C(=O)O)n1 [D[…]] | < 1 ×10⁻⁶ cm/s |

Same assay, conditions: PAMPA, PAMPA-BBB Pe(10^-6 cm/sec), Table S3: compounds exhibiting low PAMPA-BBB permeability

| Compound | Papp |
| --- | --- |
| c1cncc([C@@H]2CCCCN2)c1 [ANABASINE] | 3.4 ×10⁻⁶ cm/s |
| O=c1cc(-c2ccc(O)cc2)oc2cc(O[C@@H]3O[C@H](CO)[C@@H](O)[C@H](O)[C@H]3O[C@@H]3OC[C@](O)(CO)[C@H]3O)cc(O)c12 [APIIN] | 2 ×10⁻⁶ cm/s |
| CC1=C(/C=C/C(C)=C/C=C/C(C)=C/C=C/C=C(C)/C=C/C=C(\C)C=O)C(C)(C)CCC1 [APOCAROTENAL] | < 1 ×10⁻⁶ cm/s |
| Nc1nc2c(ncn2[C@@H]2O[C@H](CO)[C@@H](O)[C@@H]2O)c(=O)[nH]1 [ARAGUANOSINE] | < 1 ×10⁻⁶ cm/s |
| OC[C@H]1O[C@@H](Oc2ccc(O)cc2)[C@H](O)[C@@H](O)[C@@H]1O [ARBUTIN] | < 1 ×10⁻⁶ cm/s |
| COc1cccc2c1cc([N+](=O)[O-])c1c(C(=O)O)cc3c(c12)OCO3 [ARISTOLOCHIC ACID] | < 1 ×10⁻⁶ cm/s |
| Nc1ncn([C@@H]2O[C@H](CO)[C@@H](O)[C@H]2O)c(=O)n1 [AZACITIDINE] | < 1 ×10⁻⁶ cm/s |
| O=[N+]([O-])c1ncc[nH]1 [AZOMYCIN] | < 1 ×10⁻⁶ cm/s |
| CC(=O)O[C@H]1C(=O)[C@@]2(C)[C@H]([C@H](OC(=O)c3ccccc3)[C@]3(O)C[C@H](O)C(C)=C1C3(C)C)[C@]1(OC(C)=O)CO[C@@H]1C[C@@H]2O [BACCATIN III] | < 1 ×10⁻⁶ cm/s |
| O=C(O)[C@H]1O[C@@H](Oc2cc3oc(-c4ccccc4)cc(=O)c3c(O)c2O)[C@H](O)[C@@H](O)[C@@H]1O [BAICALIN] | 1.3 ×10⁻⁶ cm/s |
| COc1ccc2cc3[n+](cc2c1OC)CCc1cc2c(cc1-3)OCO2 [BERBERINE HYDROCHLORIDE] | < 1 ×10⁻⁶ cm/s |
| CC(C)=CCC/C(C)=C/COc1c2ccoc2cc2oc(=O)ccc12 [BERGAMOTTIN] | 5.8 ×10⁻⁶ cm/s |
| COc1c(O)cc2c(c1O)[C@@H]1O[C@H](CO)[C@@H](O)[C@H](O)[C@H]1OC2=O [BERGENIN] | < 1 ×10⁻⁶ cm/s |
| CC1=C(/C=C/C(C)=C/C=C/C(C)=C/C=C/C=C(C)/C=C/C=C(C)/C=C/C2=C(C)CCCC2(C)C)C(C)(C)CCC1 [BETA CAROTENE] | 9.2 ×10⁻⁶ cm/s |
| Oc1ccc2c(c1)OC[C@]1(O)Cc3cc(O)c(O)cc3[C@H]21 [BRAZILIN] | 1.9 ×10⁻⁶ cm/s |
| O=C(/C=C/c1ccc(O)c(O)c1)c1ccc(O)cc1O [BUTEIN] | < 1 ×10⁻⁶ cm/s |
| O=C(O)/C=C/c1ccc(O)c(O)c1 [CAFFEIC ACID] | < 1 ×10⁻⁶ cm/s |
| COc1ccc2c(c1OC)CN1CCc3cc4c(cc3[C@@H]1C2)OCO4 [CANADINE] | 5.5 ×10⁻⁶ cm/s |
| COc1ccc2cc1Oc1ccc(cc1)C[C@H]1c3c(cc4c(c3Oc3cc5c(cc3OC)CCN(C)[C@@H]5C2)OCO4)CCN1C [CEPHARANTHINE] | < 1 ×10⁻⁶ cm/s |
| CO[C@H]1[C@@H](O)[C@@H](C)O[C@H](O[C@H]2[C@H](Oc3cccc4c(O)c5c(=O)oc6ccc(C)c7c(=O)oc(c34)c5c67)O[C@H](C)[C@H](O)[C@@H]2O)[C@@H]1O [CHARTREUSIN] | 4 ×10⁻⁶ cm/s |
| O=C(/C=C/c1ccc(O)c(O)c1)O[C@@H]1C[C@](O)(C(=O)O)C[C@@H](O)[C@H]1O [CHLOROGENIC ACID] | < 1 ×10⁻⁶ cm/s |
| C=C1CC[C@H](O)C/C1=C/C=C1\CCC[C@]2(C)[C@@H]([C@H](C)CCCC(C)C)CC[C@@H]12 [CHOLECALCIFEROL] | < 1 ×10⁻⁶ cm/s |
| CO[C@@H]1[C@H](O)C[C@@H](O[C@@H]2C[C@H](Oc3cc4cc5c(c(O)c4c(O)c3C)C(=O)[C@@H](O[C@H]3C[C@@H](O[C@H]4C[C@@H](O[C@H]6C[C@](C)(O)[C@@H](OC(C)=O)[C@H](C)O6)[C@H](O)[C@@H](C)O4)[C@H](O)[C@@H](C)O3)[C@H]([C@H](OC)C(=O)[C@@H](O)[C@@H](C)O)C5)O[C@H](C)[C@@H]2OC(C)=O)O[C@@H]1C [CHROMOMYCIN A3] | < 1 ×10⁻⁶ cm/s |

| Compound | Papp |
| --- | --- |
| N[C@@H](Cc1c[nH]c2ccc(O)cc12)C(=O)O [CINCOFARM] | < 1 ×10⁻⁶ cm/s |
| O=C(O)/C=C/c1ccccc1 [CINNAMIC ACID] | < 1 ×10⁻⁶ cm/s |
| C=CC(C)=CCC=C(C)C [CIS BETA OCIMENE] | 3.9 ×10⁻⁶ cm/s |
| CC(C)(COP(=O)(O)OP(=O)(O)OC[C@H]1O[C@@H](n2cnc3c(N)ncnc32)[C@H](O)[C@@H]1OP(=O)(O)O)[C@@H](O)C(=O)NCCC(=O)NCCS [COENZYME A] | < 1 ×10⁻⁶ cm/s |
| Nc1ncnc2c1ncn2[C@@H]1O[C@H](CO)C[C@H]1O [CORDYCEPIN] | < 1 ×10⁻⁶ cm/s |
| O=c1cc(-c2ccc(O)cc2)oc2cc(O[C@H]3OC(CO)C(O)C(O)C3O)cc(O)c12 (stereo partly shown) [COSMOSIOSIDE] | 1.6 ×10⁻⁶ cm/s |
| COc1c2c(cc3c1OCO3)CC[N+](C)=C2 [COTARNINIUM] | < 1 ×10⁻⁶ cm/s |
| CN1C(=O)CC[C@H]1c1cccnc1 [COTININE] | < 1 ×10⁻⁶ cm/s |
| CC(/C=C/C=C(\C)C(=O)O[C@@H]1O[C@H](CO[C@@H]2O[C@H](CO)[C@@H](O)[C@H](O)[C@H]2O)[C@@H](O)[C@H](O)[C@H]1O)=C\C=C\C=C(C)\C=C\C=C(/C)C(=O)O[C@@H]1O[C@H](CO[C@@H]2O[C@H](CO)[C@@H](O)[C@H](O)[C@H]2O)[C@@H](O)[C@H](O)[C@H]1O [CROCIN] | 6.1 ×10⁻⁶ cm/s |
| CC(C=O)Cc1ccc(C(C)C)cc1 (stereo not shown) [CYCLAMEN ALDEHYDE] | 8.2 ×10⁻⁶ cm/s |
| O=C(/C=C/c1ccc(O)c(O)c1)O[C@@H]1C[C@@](OC(=O)/C=C/c2ccc(O)c(O)c2)(C(=O)O)C[C@@H](O)[C@@H]1O [CYNARINE] | < 1 ×10⁻⁶ cm/s |
| O=c1c(-c2ccc(O)cc2)coc2cc(O[C@@H]3O[C@H](CO)[C@@H](O)[C@H](O)[C@H]3O)ccc12 [DAIDZIN] | < 1 ×10⁻⁶ cm/s |
| O=c1ccc2ccc(O)c(O)c2o1 [DAPHNETIN] | 3.8 ×10⁻⁶ cm/s |
| O=c1ccc2ccc(O[C@@H]3O[C@H](CO)[C@@H](O)[C@H](O)[C@H]3O)c(O)c2o1 [DAPHNIN] | < 1 ×10⁻⁶ cm/s |
| O=c1c(O)c(-c2ccccc2O)oc2cc(O)cc(O)c12 [DATISCETIN] | 2.2 ×10⁻⁶ cm/s |
| CC(C)Nc1nc(N)nc(Cl)n1 [DEETHYLATRAZINE] | 6.8 ×10⁻⁶ cm/s |
| CNCCc1ccc(O)c(O)c1 [DEOXYEPINEPHRINE HYDROCHLORIDE] | < 1 ×10⁻⁶ cm/s |
| O=c1ccn([C@H]2C[C@H](O)[C@@H](CO)O2)c(=O)[nH]1 [DEOXYURIDINE] | < 1 ×10⁻⁶ cm/s |
| O=C1c2c(O)cc(O)cc2O[C@H](c2cc(O)c(O)c(O)c2)[C@H]1O [DIHYDROMYRICETIN] | < 1 ×10⁻⁶ cm/s |
| Cc1cccc2c3c(ccc12)C1=C(C(=O)C3=O)[C@@H](C)CO1 [DIHYDROTANSHINONE I] | 3.7 ×10⁻⁶ cm/s |
| N[C@H](C(=O)O)c1cc(O)cc(O)c1 [DIHYDROXYPHENYLGLYCINE] | < 1 ×10⁻⁶ cm/s |
| O=C(O)Cc1ccc(O)c(O)c1 [DOPACETIC ACID] | < 1 ×10⁻⁶ cm/s |
| Oc1cc(O)c2cc(O)c(-c3cc(O)c(O)c(O)c3)[o+]c2c1 [D[…]] | 4.7 ×10⁻⁶ cm/s |

Same assay, conditions: PAMPA, PAMPA-BBB Pe, Table S2: compounds exhibiting moderate to high PAMPA-BBB permeability

| Compound | Papp |
| --- | --- |
| CN1CCCCC1c1ccc(-c2cccnc2)nc1 (stereo not shown) [ANABASAMINE] | 31 ×10⁻⁶ cm/s |
| C/C=C/c1ccc(OC)cc1 [ANETHOLE] | 120 ×10⁻⁶ cm/s |
| O=C1c2c(O)cc(O)cc2O[C@@H](c2ccc(O)cc2)[C@@H]1O [AROMADENDRINE] | 58 ×10⁻⁶ cm/s |
| O=C(/C=C/c1ccccc1)OCc1ccccc1 [BENZYL CINNAMATE] | > 424 ×10⁻⁶ cm/s |
| C/C(=C\COc1c2ccoc2cc2oc(=O)ccc12)CCC(O)C(C)(C)O (stereo not shown) [BERGAMOTTIN DIHYDROXYBERGAMOTTIN] | 55 ×10⁻⁶ cm/s |
| O=C1NC(=O)C(c2c[nH]c3ccccc23)=C1c1c[nH]c2ccccc12 [BISINDOLYLMALEIMIDE] | > 654 ×10⁻⁶ cm/s |
| COc1cc2c(cc1O)C[C@H]1c3c(cc(O)c(OC)c3-2)CCN1C [BOLDINE] | 49 ×10⁻⁶ cm/s |
| C[C@]12CC[C@H](O)C[C@H]1CC[C@@H]1[C@@H]2CC[C@]2(C)[C@@H](c3ccc(=O)oc3)C[C@H]3O[C@]132 [BUFOGENIN] | 115 ×10⁻⁶ cm/s |
| CCN1C[C@@]2(COC)CCC(OC)[C@@]34[C@@H]1C([C@H](OC)[C@H]23)[C@@]1(OC(C)=O)C[C@H](OC)[C@@]2(O)C[C@H]4C1[C@H]2OC(=O)c1ccc(OC)cc1 (stereo partly shown) [BULLE[…]] | 17 ×10⁻⁶ cm/s |
| Cc1ccc(C(C)C)cc1O [CARVACROL] | 111 ×10⁻⁶ cm/s |
| COc1ccc(-c2oc3cc(O[C@@H]4O[C@H](CO)[C@@H](O)[C@H](O)[C@H]4O)c(OC)c(O)c3c(=O)c2OC)cc1O [CENTAUREIN] | 38 ×10⁻⁶ cm/s |
| COc1ccc2c(c[n+](C)c3c4cc5c(cc4ccc23)OCO5)c1OC [CHELE[…]] | 95 ×10⁻⁶ cm/s |
| COc1cc(-c2cc(=O)c3c(O)cc(O)cc3o2)ccc1O [CHRYSERIOL] | 179 ×10⁻⁶ cm/s |
| C=C[C@H]1C[N@@]2CC[C@H]1C[C@@H]2[C@@H](O)c1ccnc2ccccc12 [CINCHONINE] | 22 ×10⁻⁶ cm/s |
| CC(=O)OCC=Cc1ccccc1 [CINNAMYL ACETATE] | 88 ×10⁻⁶ cm/s |
| O=c1ccc2ccccc2o1 [COUMARIN] | 74 ×10⁻⁶ cm/s |
| COc1cc(/C=C/c2ccccc2)oc(=O)c1 [DEMETHOXYYANGONIN] | 186 ×10⁻⁶ cm/s |
| C[C@]12CC[C@H]3[C@@H](CCC4=CC(=O)CC[C@@]43C)[C@@H]1CC[C@@H]2C(=O)CO [DESOXYCORTICOSTERONE] | 65 ×10⁻⁶ cm/s |
| COC1=CC(=O)O[C@@H](CCc2ccccc2)C1 [DIHYDROKAWAIN] | 82 ×10⁻⁶ cm/s |
| COc1cc2c(O)c3c(c(-c4ccc5c(c4)OCO5)c2cc1OC)C(=O)OC3 [DIPHYLLIN] | 187 ×10⁻⁶ cm/s |
| C[C@]12CCC(=O)C=C1[C@@H]1C[C@@H]1[C@H]1[C@@H]3[C@@H]4C[C@@H]4[C@@]4(CCC(=O)O4)[C@@]3(C)CC[C@@H]12 [DROSPIRENONE] | 169 ×10⁻⁶ cm/s |
| COc1cc(C)c(C(=O)Oc2cc(C)c(C(=O)O)c(O)c2C)c(OC)c1C [Diffractaic acid] | 15 ×10⁻⁶ cm/s |
